{
  "source": "patent US11673866B2",
  "about": "“Estrogen receptor beta ligands for the prevention and treatment of multiple sclerosis (MS) and other demyelinating, inflammatory and neurodegenerative diseases” (The Board of Trustees of the University of Illinois, priority 2018, dated 2023)",
  "key": {"ERα": {"target": "T1, ERα (Homo sapiens, UniProt P03372)", "T1 sequence (P03372 1-595)": "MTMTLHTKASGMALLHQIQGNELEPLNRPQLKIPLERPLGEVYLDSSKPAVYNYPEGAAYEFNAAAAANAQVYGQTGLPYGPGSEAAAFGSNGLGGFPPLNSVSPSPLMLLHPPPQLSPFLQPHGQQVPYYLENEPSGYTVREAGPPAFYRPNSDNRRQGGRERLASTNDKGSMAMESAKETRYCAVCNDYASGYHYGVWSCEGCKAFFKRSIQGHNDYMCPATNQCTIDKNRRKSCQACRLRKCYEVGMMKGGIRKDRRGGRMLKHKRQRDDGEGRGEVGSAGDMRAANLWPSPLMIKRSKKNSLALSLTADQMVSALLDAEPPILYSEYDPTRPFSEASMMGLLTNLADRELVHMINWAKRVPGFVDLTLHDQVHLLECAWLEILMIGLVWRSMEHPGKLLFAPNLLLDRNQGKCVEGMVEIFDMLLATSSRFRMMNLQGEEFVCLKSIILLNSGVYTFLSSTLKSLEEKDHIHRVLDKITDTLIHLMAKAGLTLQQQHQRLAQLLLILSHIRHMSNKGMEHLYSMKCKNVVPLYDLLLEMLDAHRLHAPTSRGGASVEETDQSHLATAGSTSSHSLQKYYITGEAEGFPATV", "assay": "Relative binding affinity (RBA) to estrogen receptor alpha, radiometric measurement", "conditions": "relative value to 100% for E2 by radiometric measurement"}, "ERβ": {"target": "ERβ (Homo sapiens, UniProt Q92731)", "sequence (Q92731 whole entry, species assumed)": "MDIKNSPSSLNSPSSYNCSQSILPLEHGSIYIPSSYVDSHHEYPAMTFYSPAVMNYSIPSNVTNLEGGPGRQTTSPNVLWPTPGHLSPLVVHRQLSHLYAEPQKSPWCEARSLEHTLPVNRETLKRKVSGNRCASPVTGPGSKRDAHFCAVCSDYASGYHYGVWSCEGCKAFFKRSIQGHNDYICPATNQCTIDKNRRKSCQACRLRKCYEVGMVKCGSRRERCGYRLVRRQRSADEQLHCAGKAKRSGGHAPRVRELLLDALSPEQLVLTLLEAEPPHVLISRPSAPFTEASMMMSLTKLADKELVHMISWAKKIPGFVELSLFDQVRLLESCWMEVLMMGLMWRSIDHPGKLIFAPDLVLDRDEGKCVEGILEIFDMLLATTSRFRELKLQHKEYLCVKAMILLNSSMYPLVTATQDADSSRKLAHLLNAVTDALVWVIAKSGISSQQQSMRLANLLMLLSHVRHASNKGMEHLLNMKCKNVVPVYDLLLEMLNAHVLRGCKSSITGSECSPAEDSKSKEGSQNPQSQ", "assay": "Relative binding affinity (RBA) to estrogen receptor beta, radiometric measurement", "conditions": "for β/α Ratio: ratio of RBA ERβ to RBA ERα; for RBA ERβ: relative value to 100% for E2 by radiometric measurement"}, "[1]": {"test_system": "primary oligodendrocyte and oligodendrocyte precursor cells (OL/OPCs)", "assay": "Primary OPC culture differentiation (MBP immunostaining, DAPI)", "type": "cell-based, mouse", "set-up": "key to %MBP+/DAPI: *: The level of production of myelin basic protein (MBP); ---: reduction of MBP", "conditions": "for %MBP+/DAPI: level of production of myelin basic protein in primary OPC/OL cultures; for MBP+/DAPI ratio (OPC differentiation): FIG. 10B", "experimental": "Primary OPC Cultures: Primary OPCs, isolated from postnatal day P1 C57BL/6 male and female mouse cortices as described previously, were treated with 10 nM ligands in differentiating medium for 3 days (Tiwari-Woodruff et al., 2001; Tiwari-Woodruff et al., 2006). Primary OPC were cultured into 8-well chamber slides (three wells per condition, 2.5×10^5 cells/well) for three days to attach and […] in differentiating media (consisting of DMEM-F12 with triiodothyronine- and thyroxine-containing Sato as well as penicillin, streptomycin, insulin, N-acetyl-L-cysteine, forskolin, ciliary neurotrophic factor, neurotrophin-3, and platelet-derived growth factor receptor α (Tiwari-Woodruff et al., 2001)). A positive control (IndCl), a negative control (Vehicle consisting of the media+EtOH mixture used to dissolve IndCl), and a normal control (differentiating media alone) were used for comparison. At the end of the treatment period, cells were fixed, stained by immunocytochemistry (primary antibody polyclonal chicken myelin basic protein (MBP, Millipore AB9348), shown in green and co-stained with nuclear stain—DAPI shown in blue), and imaged with an Olympus BX61 confocal microscope (Olympus America Inc., Center Valley, Pa.) at 10× magnification (3 images per well). Cells were counted using the ImageJ multipoint tool, and counts were then divided by the image area (mm^2). Average cell density for each condition was then divided by the normal condition cell density. Analysis of OL differentiation consisted of counting the number of MBP+ cells and process extensions that were longer than the respective cell-body diameter and tracking the number of highly branched MBP+ cells (with three or more processes) (Monnerie et al., 2017). Statistics were performed using GraphPad Prism 6 Software (La Jolla, Calif.). One-way ANOVA with Tukey's posthoc test for multiple comparisons was used to generate p-values, and data are presented as mean SEM (with α≤0.05).\nPrimary OPC cultures were used as a convenient cell-based assay to characterize the proliferation and/or differentiation effects of the new IndCl analogues and to select those most suitable for more extensive studies to be done in comparison with the parental ligand, IndCl. 48 hours after plating OPCs, one of seven IndCl analogues (FIG. 1A) was added to differentiating media at a concentration of 10 nM (De Angelis et al., 2005; Saijo et al., 2011). OPCs were allowed to differentiate for 3 days in the presence of IndCl or analogues, at which point they were fixed, immunostained for OPC/OL markers, and quantified. […] The total number of cells in culture was not altered by any treatment (FIGS. 1B and 1D)."}, "primary OPCs/OLs": {"test_system": "primary OPCs/OLs", "assay": "Primary OPC/OL differentiation and survival (O4, MOG, DAPI staining)", "type": "cell-based, mouse", "conditions": "for number of MOG+ OLs: vs vehicle-treated cells, FIG. 12B", "from_the_text": "FIG. 12A is representative images of primary OPCs/OLs from wells containing differentiating media in the presence of different analogues. OLs were immunostained with an antigen on the surface of oligodendrocyte progenitors, O4, a marker of mature oligodendrocytes, myelin oligodendrocyte glycoprotein, MOG and co-stained with nuclear stain DAPI.\nFIG. 12B and FIG. 12C show quantification of the effects of treatment on the number of MOG+ OLs and the number of total cells (DAPI), respectively. […] There were 3 wells/treatment group. n=3 independent experiments were performed. One-Way ANOVA with Dunnett's multiple comparisons test.\nThe effect on cell differentiation and survival of estrogen receptor § (ERP) ligand IndCl and analogs were investigated. Some estrogen receptor § (ERP) ligands increase primary mouse oligodendrocyte differentiation (FIGS. 12A-12C)."}},
  "note": "Entries after “also recorded” stand apart in the source; their conditions may differ.",
  "data": [
    {"smiles": "N#Cc1cc(O)ccc1-n1nc2ccc(O)cc2c1Cl", "note": "[IndCl-o-CN, 2-(3-chloro-5-hydroxy-2H-indazol-2-yl)-5-hydroxybenzonitrile]", "values": [
      {"measurement": "RBA ERα", "setting": "ERα", "result": 0.05, "unit": "%"},
      {"measurement": "β/α Ratio", "setting": "ERβ", "result": 15.7},
      {"measurement": "RBA ERβ", "setting": "ERβ", "result": 0.77, "unit": "%"},
      {"measurement": "%MBP+/DAPI", "setting": "[1]", "result": "---"}
    ]},
    {"smiles": "Oc1ccc(-n2nc3ccc(O)cc3c2Cl)c(I)c1", "note": "[IndCl-o-I, 2-(2-iodo-4-hydroxyphenyl)-3-chloro-2H-indazol-5-ol]", "values": [
      {"measurement": "RBA ERα", "setting": "ERα", "result": 0.34, "unit": "%"},
      {"measurement": "β/α Ratio", "setting": "ERβ", "result": 15.7},
      {"measurement": "RBA ERβ", "setting": "ERβ", "result": 5.38, "unit": "%"},
      {"measurement": "number of MBP+ OLs (differentiated OLs)", "setting": "[1]; 10 nM, 3 days in differentiating media, vs vehicle-treated cells", "result": "significant increase; also recorded: significantly increased"},
      {"measurement": "branched OLs / complex branching cells", "setting": "[1]; 10 nM, vs vehicle-treated cells", "result": "increase in the percentage of branched OLs"}
    ]},
    {"smiles": "Oc1ccc(-n2nc3ccc(O)c(Cl)c3c2Cl)c(Cl)c1", "note": "[IndCl-o-Cl-4-Cl, 2-(2-chloro-4-hydroxyphenyl)-3,4-dichloro-2H-indazol-5-ol]", "values": [
      {"measurement": "RBA ERα", "setting": "ERα", "result": 0.33, "unit": "%"},
      {"measurement": "β/α Ratio", "setting": "ERβ", "result": 0.46},
      {"measurement": "RBA ERβ", "setting": "ERβ", "result": 0.73, "unit": "%"},
      {"measurement": "%MBP+/DAPI", "setting": "[1]", "result": "*"}
    ]},
    {"smiles": "Oc1ccc(-n2nc3ccc(O)cc3c2F)c(Br)c1", "note": "[IndF-o-Br, 2-(2-bromo-4-hydroxyphenyl)-3-fluoro-2H-indazol-5-ol]", "values": [
      {"measurement": "RBA ERα", "setting": "ERα", "result": 0.37, "unit": "%"},
      {"measurement": "β/α Ratio", "setting": "ERβ", "result": 3.3},
      {"measurement": "RBA ERβ", "setting": "ERβ", "result": 1.22, "unit": "%"},
      {"measurement": "number of total cells (DAPI)", "setting": "primary OPCs/OLs; FIG. 12C", "result": "significant increase"},
      {"measurement": "number of MOG+ OLs", "setting": "primary OPCs/OLs", "result": "significant increase"}
    ]},
    {"smiles": "Cc1cc(O)ccc1-n1nc2ccc(O)cc2c1Br", "note": "[IndBr-o-Me, 3-bromo-2-(4-hydroxy-2-methylphenyl)-2H-indazol-5-ol]", "values": [
      {"measurement": "RBA ERα", "setting": "ERα", "result": 1.22, "unit": "%"},
      {"measurement": "β/α Ratio", "setting": "ERβ", "result": 9.8},
      {"measurement": "RBA ERβ", "setting": "ERβ", "result": 11.99, "unit": "%"},
      {"measurement": "number of MOG+ OLs", "setting": "primary OPCs/OLs", "result": "significant increase"}
    ]},
    {"smiles": "Oc1ccc(-n2nc3ccc(O)cc3c2Cl)c(Br)c1", "note": "[IndCl-o-Br, 2-(2-bromo-4-hydroxyphenyl)-3-chloro-2H-indazol-5-ol]", "values": [
      {"measurement": "RBA ERα", "setting": "ERα", "result": 0.47, "unit": "%"},
      {"measurement": "β/α Ratio", "setting": "ERβ", "result": 17.9},
      {"measurement": "RBA ERβ", "setting": "ERβ", "result": 8.31, "unit": "%"},
      {"measurement": "%MBP+/DAPI", "setting": "[1]", "result": "*"}
    ]},
    {"smiles": "Oc1cc(F)c(-n2nc3ccc(O)c(Cl)c3c2Cl)c(F)c1", "note": "[IndCl-o-F2-4-Cl, 3,4-dichloro-2-(2,6-difluoro-4-hydroxyphenyl)-2H-indazol-5-ol]", "values": [
      {"measurement": "RBA ERα", "setting": "ERα", "result": 0.076, "unit": "%"},
      {"measurement": "β/α Ratio", "setting": "ERβ", "result": 3.6},
      {"measurement": "RBA ERβ", "setting": "ERβ", "result": 0.28, "unit": "%"},
      {"measurement": "MBP+/DAPI ratio (OPC differentiation)", "setting": "[1]", "result": "greatest increase"}
    ]},
    {"smiles": "Oc1ccc(-n2nc3ccc(O)cc3c2Cl)c(O)c1", "note": "[IndCl-o-OH, 4-(3-chloro-5-hydroxy-2H-indazol-2-yl)benzene-1,3-diol]", "values": [
      {"measurement": "RBA ERα", "setting": "ERα", "result": 0.062, "unit": "%"},
      {"measurement": "β/α Ratio", "setting": "ERβ", "result": 48.2},
      {"measurement": "RBA ERβ", "setting": "ERβ", "result": 2.99, "unit": "%"},
      {"measurement": "MBP+/DAPI ratio (OPC differentiation)", "setting": "[1]", "result": "greatest increase"}
    ]},
    {"smiles": "Cc1cc(O)ccc1-n1nc2ccc(O)cc2c1F", "note": "[IndF-o-Me, 3-fluoro-2-(4-hydroxy-2-methylphenyl)-2H-indazol-5-ol]", "values": [
      {"measurement": "RBA ERα", "setting": "ERα", "result": 0.11, "unit": "%"},
      {"measurement": "β/α Ratio", "setting": "ERβ", "result": 3.4},
      {"measurement": "RBA ERβ", "setting": "ERβ", "result": 0.37, "unit": "%"},
      {"measurement": "%MBP+/DAPI", "setting": "[1]", "result": "* * * * *"},
      {"measurement": "number of MOG+ OLs", "setting": "primary OPCs/OLs", "result": "significant increase"}
    ]},
    {"smiles": "Oc1ccc(-n2nc3ccc(O)cc3c2Br)c(Br)c1", "note": "[IndBr-o-Br, 3-bromo-2-(2-bromo-4-hydroxyphenyl)-2H-indazol-5-ol]", "values": [
      {"measurement": "RBA ERα", "setting": "ERα", "result": 1.40, "unit": "%"},
      {"measurement": "β/α Ratio", "setting": "ERβ", "result": 4.2},
      {"measurement": "RBA ERβ", "setting": "ERβ", "result": 5.84, "unit": "%"},
      {"measurement": "%MBP+/DAPI", "setting": "[1]", "result": "*"}
    ]}
  ]
}
